According to patent US8633166B2, “Methicillin-resistant Staphylococcus aureus active metabolites” (priority 2009, dated 2014):
≈ marks a conversion by molar mass, not a printed value. Where two headings read alike, the source gives them in different places.

Experiments:
Assay in all cases: In vitro MIC, broth microdilution (CLSI)
Assay type in all cases: cell-based
[1] = test system: Streptococcus agalactiae; conditions: Streptococcus agalactiae, MHB II with 2% lysed horse blood, read-out: MIC
Description: (§1) All test articles were dissolved in DMSO. Stock solutions were prepared at 40-fold the highest concentration in the test plate. The final concentration of DMSO in the test system was 2.5%.
(§2) The medium employed for the MIC assay was Mueller Hinton II Broth (MHB II-Becton Dickinson, #212322, Lot #9044411) for most of the organisms. MHB II was supplemented with 2% lysed horse blood (Cleveland Scientific Lot #22299-1) to accommodate the growth of Streptococcus pneumoniae, Streptococcus pyogenes and Streptococcus agalactiae. The media were prepared at 102.5% the normal weight to offset the dilution created by the addition of 5 μL drug solution to each well of the microdilution panels.
(§3) The MIC assay method followed the procedure described by the Clinical and Laboratory Standards Institute (see Clinical and Laboratory Standards Institute. Methods for Dilution Antimicrobial, Susceptibility Tests for Bacteria That Grow Aerobically; Approved Standard—Eighth Edition. CLSI document M07-A8 [ISBN 1-56238-689-1]. Clinical and Laboratory, Standards Institute, 940 West Valley Road, Suite 1400, Wayne, Pa. 19087-1898 USA, 2009) and employed automated liquid handlers to conduct serial dilutions and liquid transfers. Automated liquid handlers included the Multidrop 384 (Labsystems, Helsinki, Finland), Biomek 2000 and Multimek 96 (Beckman Coulter, Fullerton Calif.).
(§4) The wells of Columns 2-12 of standard 96-well microdilution plates (Falcon 3918) were filled with 150 μL of DMSO on the Multidrop 384. The drugs (300 μL) were dispensed into Column 1 of the appropriate row in these plates. These would become the mother plates from which the test plates (daughter plates) were prepared. The Biomek 2000 completed serial transfers through Column 11 in the mother plates. The wells of Column 12 contained no drug and were the organism growth control wells in the daughter plates. The daughter plates were loaded with 185 μL of the appropriate test media (described above) using the Multidrop 384. The daughter plates were prepared on the Multimek 96 instrument which transferred 5 μL of drug solution from each well of a mother plate to each corresponding well of each daughter plate in a single step. Therefore, the test agents were maintained in solution in 100% DMSO up until the point of being added to the final test medium.
(§5) Standardized inoculum of each organism was prepared per CLSI methods (See Clinical and Laboratory Standards Institute. Performance Standards for Antimicrobial Susceptibility Testing; Nineteenth Informational Supplement. CLSI document M100-S19 [ISBN 1-56238-690-5]. Clinical and Laboratory Standards Institute, 940 West Valley Road, Suite 1400, Wayne, Pa. 19087-1898 USA, 2009.). Suspensions were prepared in MHB to equal the turbidity of a 0.5 McFarland standard. The suspensions were diluted 1:9 in broth appropriate to the organism. The inoculum for each organism was dispensed into sterile reservoirs divided by width (Beckman Coulter), and the Biomek 2000 was used to inoculate the plates. Daughter plates were placed on the Biomek 2000 work surface reversed so that inoculation took place from low to high drug concentration. The Biomek 2000 delivered 10 μL of standardized inoculum into each well. This yielded a final cell concentration in the daughter plates of approximately 5×10^5 colony-forming-units/mL. Thus, the wells of the daughter plates ultimately contained 185 μL of broth, 5 μL of drug solution, and 10 μL of bacterial inoculum. The final concentration of DMSO in the assay plate was 2.5%.
(§6) Plates were stacked 3 high, covered with a lid on the top plate, placed in plastic bags, and incubated at 35° C. for approximately 18 hours for most of the isolates. The Streptococcus plates were read after 20 hours of incubation. The microplates were viewed from the bottom using a plate viewer. […] The MIC was read and recorded as the lowest concentration of drug that inhibited visible growth of the organism.

[2] = test system: Enterococcus faecalis; conditions: read-out: MIC (converted)
Description: as §1, §2, §3, §4, §5, §6

[3] = test system: Staphylococcus aureus; conditions: Staphylococcus aureus, read-out: MIC (converted)
Description: as §1, §2, §3, §4, §5, §6

[4] = test system: Streptococcus pyogenes; conditions: MHB II with 2% lysed horse blood
Description: as §1, §2, §3, §4, §5, §6

[5] = test system: Staphylococcus epidermidis; conditions: Staphylococcus epidermidis, read-out: MIC
Description: as §1, §2, §3, §4, §5, §6

[6] = test system: Streptococcus pneumoniae; conditions: Streptococcus pneumoniae, MHB II with 2% lysed horse blood, read-out: MIC (converted)
Description: as §1, §2, §3, §4, §5, §6

[7] = test system: Enterococcus faecium; conditions: read-out: MIC
Description: as §1, §2, §3, §4, §5, §6

Molecule `CC(=O)NC[C@H]1CN(c2ccc(N3CCOCC3)c(F)c2)C(=O)O1` [Linezolid, reference compound] has an MIC ([1]; MMX 3743, Mt. Sinai) of 1 µg/mL (≈ 2.96 µM), an MIC ([1]; MMX 4093, UCLA) of 1 µg/mL (≈ 2.96 µM) and an MIC ([1]; MMX 4106, CHP) of 2 µg/mL (≈ 5.93 µM). For the same molecule, the MIC ([2]; Enterococcus faecalis, ATCC29212, MMX 101, CLSI QC, ATCC 29212) was 2 µg/mL (≈ 5.93 µM), the MIC ([2]; Enterococcus faecalis, MMX 742, VSE, CHP) was 2 µg/mL (≈ 5.93 µM) and the MIC ([2]; Enterococcus faecalis, MMX 3199, VSE, UCLA) was 2 µg/mL (≈ 5.93 µM). For the same molecule, the MIC ([2]; Enterococcus faecalis, MMX 3896, VSE, Mt. Sinai) was 1 µg/mL (≈ 2.96 µM), the MIC ([2]; MMX 3821, VRE, Mt. Sinai) was 2 µg/mL (≈ 5.93 µM) and the MIC ([2]; MMX 4131, VRE, CHP) was 2 µg/mL (≈ 5.93 µM). For the same molecule, the MIC ([2]; MMX 4160, VRE, UCLA) was 2 µg/mL (≈ 5.93 µM), the MIC ([3]; ATCC29213, MMX 100, CLSI QC, ATCC 29213) was 4 µg/mL (≈ 11.9 µM) and the MIC ([3]; MRSA, MMX 758, MRSA, CHP) was 4 µg/mL (≈ 11.9 µM). It also gave an MIC ([3]; MRSA, MMX 2055, MRSA, UCLA) of 4 µg/mL (≈ 11.9 µM), an MIC ([3]; MRSA, MMX 3894, MRSA, Mt. Sinai) of 4 µg/mL (≈ 11.9 µM) and an MIC ([3]; MSSA, MMX 753, MSSA, CHP) of 4 µg/mL (≈ 11.9 µM). It also gave an MIC ([3]; MSSA, MMX 2063, MSSA, UCLA) of 2 µg/mL (≈ 5.93 µM), an MIC ([3]; MSSA, MMX 3856, MSSA, Mt. Sinai) of 4 µg/mL (≈ 11.9 µM) and an MIC ([4]; MMX 2572, UCLA) of 1 µg/mL (≈ 2.96 µM). For the same molecule, the MIC ([4]; MMX 3928, Mt. Sinai) was 1 µg/mL (≈ 2.96 µM), the MIC ([4]; Streptococcus pyogenes, MMX 718, CHP, read-out: MIC) was 1 µg/mL (≈ 2.96 µM) and the MIC ([5]; MMX 835, MSSE, UCLA) was 1 µg/mL (≈ 2.96 µM). For the same molecule, the MIC ([5]; MMX 3703, MSSE, CHP) was 1 µg/mL (≈ 2.96 µM), the MIC ([5]; MMX 3763, MSSE, Mt. Sinai) was 2 µg/mL (≈ 5.93 µM) and the MIC ([5]; MRSE, MMX 762, MRSE, CHP) was 1 µg/mL (≈ 2.96 µM). The MIC ([5]; MRSE, MMX 826, MRSE, UCLA) was 1 µg/mL (≈ 2.96 µM), the MIC ([5]; MRSE, MMX 3752, MRSE, Mt. Sinai) was 1 µg/mL (≈ 2.96 µM) and the MIC ([6]; ATCC49619, MMX 1195, CLSI QC, ATCC 49619) was 1 µg/mL (≈ 2.96 µM). For the same molecule, the MIC ([6]; MMX 866, PSSP, CHP) was 1 µg/mL (≈ 2.96 µM), the MIC ([6]; MMX 3130, PSSP, UCLA) was 1 µg/mL (≈ 2.96 µM) and the MIC ([6]; MMX 3937, PSSP, Mt. Sinai) was 1 µg/mL (≈ 2.96 µM). For the same molecule, the MIC ([6]; PRSP, MMX 748, PRSP, CHP) was 0.5 µg/mL (≈ 1.48 µM), the MIC ([6]; PRSP, MMX 3160, PRSP, UCLA) was 1 µg/mL (≈ 2.96 µM) and the MIC ([6]; PRSP, MMX 3953, PRSP, Mt. Sinai) was 0.5 µg/mL (≈ 1.48 µM). For the same molecule, the MIC ([7]; Enterococcus faecium, MMX 0799, VSE, CHP) was 2 µg/mL (≈ 5.93 µM), the MIC ([7]; Enterococcus faecium, MMX 0845, VSE, UCLA) was 2 µg/mL (≈ 5.93 µM) and the MIC ([7]; Enterococcus faecium, MMX 1259, VSE, Mt. Sinai) was 4 µg/mL (≈ 11.9 µM). For the same molecule, the MIC ([7]; MMX 1238, VRE, Mt. Sinai) was 2 µg/mL (≈ 5.93 µM), the MIC ([7]; MMX 4024, VRE, CHP) was 4 µg/mL (≈ 11.9 µM) and the MIC ([7]; MMX 4048, VRE, UCLA) was 4 µg/mL (≈ 11.9 µM).
